Test results taken from patent publication US10202385B2, “Use of substituted 2,3-dihydroimidazo[1,2-C]quinazolines” (BAYER INTELLECTUAL PROPERTY GMBH, priority 2011, dated 2019).
Structures can show the parent of a compound that is named as a salt.

Legend:
Format in all cases: cell-based
T47D cells [1] = assay: Apoptosis induction (PARP cleavage, Caspase-Glo 3/7) in T47D cells
Method: (§1) Tumor cells were seeded in 384-well plates at a concentration of 1000-2500 cells/well/25 μL depending on cell lines. After overnight incubation, cells were treated with compounds (5 μL). Then, Caspase 3/7 activities were determined at 24 to 48 hours post-treatment using Caspase-Glo3/7 assay kits (Promega Cat # G8212).
The combination effects of PI3K inhibitors and other agent were evaluated using combination index isobologram analysis (Chou et al. Pharmacology Reviews 2006). The efficacy parameters were the median effect in a 72-hour cell proliferation assay and the 24- or 48-hour Caspase 3/7 activity assay described above. Briefly, cells were plated in 384-well plate with 25 μl medium. […] The corresponding component doses of D1 and D2 at the E(I)C50/E(I)C90 were calculated and used for plotting isobolograms. The multiple drug effect was analyzed as described by Chou et al. (Pharmacology Reviews 2006) and the combination index was calculated using the formula: Combination Index=[D1x]/D1′+[D2x]/D2′ where D1x and D2x refer to the Drug 1 and Drug 2 concentration at EC50/IC50 or EC90/IC90, respectively, in combination; and D1′ and D2′ refer to the EC50/IC50 or EC90/IC90 values of D1 and D2, respectively, as single agents. […]

breast tumor cell lines = assay: 72-hour tumor cell proliferation assay, molecular profiling in 24 breast tumor cell lines
Method: (§2) In accordance with the invention, the compound were assessed in a cell-based assay that measures the capacity of the compounds to inhibit tumor cell proliferation following a 72-hour drug exposure. Cell viability was conducted by Invitrogen (breast Oncopanel, Invitrogen, USA), or was determined using CellTiter-Glo® Luminescent Cell Viability Assay (Promega) as follows. Cells were plated at 300-5000 cells/well depending on the cell lines or microtiter plates (96- or 384-well) in 100 μL growth medium in 96-well and 20 μL growth medium in 384-well microtiterplate. For each cell line assayed, cells were plated onto a separate plate for determination of luminescence at t=0 hour and t=72 hour time points. Following overnight incubation at 37° C., luminescence values for the t=0 samples were determined. Dose plates for the t=72 hour time points were treated with compounds diluted into growth medium. Cells were then incubated for 72 hours at 37° C. Luminescence values for the t=72 hour samples were determined. For data analysis, briefly, t=0 values were subtracted from those determined for the t=72 hour time points, for both the treated and untreated samples. Percent differences in luminescence between drug-treated and control values were used to determine the percent inhibition of growth.
Using a set of breast cancer cell lines representing differential receptor expression status and genetic alterations of PIK3CA and PTEN, the anti-proliferative and apoptotic effects of Compound A were investigated.

T47D cells [2] = assay: 72-hour tumor cell proliferation assay in T47D cells; settings: T47D (PIK3CA mut)
Method: as §2, with “growth. […]” for “growth.”

MDA-MB-468 tumor cells [3] = assay: Tumor cell proliferation assay in MDA-MB-468 cells; settings: PTEN null, EGFR high, Bcl-2 negative MDA-MB-468
Method: as §2, with “Dose plates for the t=72 hour time points were treated with compounds diluted into growth medium. Cells were then incubated for 72 hours at 37° C.” left out
The combination effects of PI3K inhibitors and other agent were evaluated using combination index isobologram analysis (Chou et al. Pharmacology Reviews 2006). […]

[4] = tested on: breast tumor cells (BT-20, BT-474, KPL-4); assay: Apoptosis induction (PARP cleavage, Caspase 3/7) in breast tumor cells
Method: as §1

MDA-MB-468 tumor cells [5] = assay: Apoptosis induction (PARP cleavage) in MDA-MB-468 cells; settings: PTEN null, EGFR high, Bcl-2 negative MDA-MB-468
Method: as §1
The cellular expression of the mTORC2 component Rictor was assessed by western blot analysis (A). Induction of PARP cleavage by compound A treatment in combination with inhibition of mTORC1 or mTORC2 (B). shControl and shRictor MDA-MB468 cells were treated with indicated agents for 48 hours, and cleavage of PARP was analyzed. GAPDH was used as an internal protein control.

Row | IC50 (breast tumor cell lines; breast tumor cells with HER2 expression, n=8 cell lines, proliferation) [nM] | IC50 (breast tumor cell lines; breast tumor cells with PIK3CA mutation, n=7 cell lines, proliferation) [nM] | IC50 (breast tumor cell lines; wild type PIK3CA and HER2 negative breast cancer cells, n=12, proliferation) [nM] | anti-proliferative activity IC50 (T47D cells [2]) | Compound | sensitization to apoptosis in combination with Compound A (T47D cells [1]; T47D cells, ABT-737 combined with Compound A) | inhibition of proliferation (MDA-MB-468 tumor cells [3]) | apoptosis induction ([4]; PIK3CA mutant and or HER2 positive breast tumor cells (such as BT20, BT474)) | inducing apoptosis ([4]; breast cancer cells expressing HER2 and/or PIK3CA mutation in the absence of Bcl-2 (conclusion)) | apoptosis after exposure ([4]; tumor cells that lack Bcl-2 expression (KPL-4, BT-474, BT-20)) | apoptosis induction (T47D cells [1]; T47D (PIK3CA mut), high level of Bcl-2) | induction of apoptosis (MDA-MB-468 tumor cells [5])
1 | – | – | – | – | CN(C)CC[C@H](CSc1ccccc1)Nc1ccc(S(=O)(=O)NC(=O)c2ccc(N3CCN(Cc4ccccc4-c4ccc(Cl)cc4)CC3)cc2)cc1[N+](=O)[O-] [ABT-737, reference compound] | sensitized T47D cells to apoptosis | – | – | – | – | – | –
2 | 19 | 17 | 773 | single-digit | COc1c(OCCCN2CCOCC2)ccc2c1N=C(NC(=O)c1cnc(N)nc1)N1CCN=C21 [Compound A, 2-amino-N-[7-methoxy-8-(3-morpholin-4-ylpropoxy)-2,3-dihydroimidazo[1,2-c]quinazolin-5-yl]pyrimidine-5-carboxamide dihydrochloride] | – | insensitive | strong activity | extremely effective | immediately underwent apoptosis | resistant to apoptosis | resistant
